ChEMBL document CHEMBL5537201, “Discovery of Unique Bis-Substituted Aromatic Amide Derivatives as Novel Highly Potent Antibiotics for Combating Methicillin-Resistant Staphylococcus aureus (MRSA)” (J Med Chem, 2024)
Converted amounts (≈) assume the structure as drawn. The source made the active and inactive calls. The calls are words filed in the database; no cut-off is given here.

Columns and labels:
[1] = Selectivity index, ratio of HC50 for rabbit Red blood cell to MIC for Staphylococcus aureus ATCC6538; format: toxicity; details: red blood cells (erythrocytes), read-out: Selectivity Index
Staphylococcus aureus [2] = assay: Antimicrobial activity against methicillin resistant Staphylococcus aureus clinical isolate MRS200 assessed as reduction in bacterial growth incubated for 24 hrs by two-fold broth dilution method; format: functional
Staphylococcus aureus [3] = assay: Antimicrobial activity against methicillin resistant Staphylococcus aureus clinical isolate MRS121 assessed as reduction in bacterial growth incubated for 24 hrs by two-fold broth dilution method; format: functional
Cell membrane [4] = assay: Induction of inner membrane permeabilization in methicillin resistant Staphylococcus aureus clinical isolate MRS153 assessed as increase in red fluorescence at 5 ug/ml by PI staining based analysis; format: cell membranes; details: dose 5.0 µg/ml
Cell membrane [5] = assay: Induction of inner membrane permeabilization in methicillin resistant Staphylococcus aureus clinical isolate MRS153 assessed as disruption of cell membrane by measuring rightward shift measured after by PI staining based flow cytometry analysis; format: cell membranes
Staphylococcus hominis = assay: Bactericidal activity against multidrug-resistant Staphylococcus hominis at 5 ug/ml measured upto 150 mins; format: functional, organism-based; details: dose 5.0 µg/ml
Staphylococcus aureus [6] = assay: Antimicrobial activity against Staphylococcus aureus ATCC6538 assessed as increase in ROS levels measured upto 90 mins by H2DCFDA probe based flow cytometry; format: functional, organism-based
[7] = Toxicity in BALB/c mouse assessed as effect on body weight at 50 mg/kg, iv measured upto 8 days; format: organism-based; details: in vivo, 192 h, time < 8 day
[8] = Toxicity in BALB/c mouse assessed as as change in AST level at 25 to 50 mg/kg, iv; format: organism-based; details: in vivo, dose 25-50 mg/kg
[9] = Toxicity in BALB/c mouse assessed as as effect on lung at 25 to 50 mg/kg, iv by H and E staining based analysis; format: organism-based; details: in vivo, dose 25-50 mg/kg
Staphylococcus aureus [10] = assay: In vivo antibacterial activity against methicillin-resistant Staphylococcus aureus clinical isolate MRS153 infected in C57BL/6N mouse model assessed as reduction in bacterial load in heart at 3.125 to 12.5 mg/kg, iv measured after 24 hrs; format: functional, organism-based; details: dose 3.125-12.5 mg/kg
Staphylococcus aureus [11] = assay: Antibacterial activity against methicillin-resistant Staphylococcus aureus clinical isolate MRS153 infected in C57BL/6N mouse model assessed as reversal of cell morphology to normal state at 3.125 to 12.5 mg/kg, iv; format: functional, organism-based; details: dose 3.125-12.5 mg/kg
Staphylococcus aureus [12] = assay: Upregulation of multidrug efflux pump genes in Staphylococcus aureus ATCC6538 at 5 ug/ml incubated for 2 hrs by RNA sequencing analysis; format: functional; details: dose 5.0 µg/ml
Staphylococcus aureus [13] = assay: Upregulation of repair gene expression in Staphylococcus aureus ATCC6538 at 5 ug/ml incubated for 2 hrs by RNA sequencing analysis; format: functional, organism-based; details: dose 5.0 µg/ml

## O=C(CCC(F)(F)F)N(Cc1cc2ccccc2s1)c1cc(-c2noc(C(F)(F)F)n2)ccc1O
[1]
  selectivity ratio: > 1000
Staphylococcus aureus [2]
  MIC: 2 µg/mL (≈ 3.88 µM)
Staphylococcus aureus [3]
  MIC: 1 µg/mL (≈ 1.94 µM)
Cell membrane [4]
  Activity: Active
Cell membrane [5]
  Activity: Active
Staphylococcus hominis
  Activity: Active
Staphylococcus aureus [6]
  Activity: Active
[7]
  Activity: Non-Toxic
[8]
  Activity: Non-Toxic
[9]
  Activity: Non-Toxic
Staphylococcus aureus [10]
  Activity: Active
Staphylococcus aureus [11]
  Activity: Active
Staphylococcus aureus [12]
  Activity: Active
Staphylococcus aureus [13]
  Activity: Active
